Data published in the NIST ThermoML archive (doi:10.1016/j.jct.2010.11.004).

Test: excess molar enthalpy (molar enthalpy of mixing); xn = mol fraction of the nth substance listed
Conditions: 298.15 K, 101 kPa, Liquid, ISOTHERMAL TITRATION CALORIMETRY

CCCCCOCCCCC [dipentyl ether] + CCCCCCCCCCCC
Conditions | excess molar enthalpy [kcal/mol]
x1 = 0.0242 | 0.00454
x1 = 0.0473 | 0.00884
x1 = 0.0693 | 0.0122
x1 = 0.0903 | 0.0155
x1 = 0.1104 | 0.0184
x1 = 0.1296 | 0.021
x1 = 0.148 | 0.0234
x1 = 0.1657 | 0.0256
x1 = 0.1869 | 0.028
x1 = 0.2071 | 0.0301
x1 = 0.2262 | 0.032
x1 = 0.2445 | 0.0337
x1 = 0.2619 | 0.0351
x1 = 0.2786 | 0.0363
x1 = 0.2989 | 0.0378
x1 = 0.3181 | 0.039
x1 = 0.3363 | 0.0399
x1 = 0.3535 | 0.0409
x1 = 0.3699 | 0.0416
x1 = 0.3855 | 0.0423
x1 = 0.4003 | 0.0425
x1 = 0.4144 | 0.0428
x1 = 0.431 | 0.0433
x1 = 0.4466 | 0.0433
x1 = 0.4614 | 0.0435
x1 = 0.4754 | 0.0435
x1 = 0.4887 | 0.0435
x1 = 0.5014 | 0.0433
x1 = 0.5129 | 0.0433
x1 = 0.5241 | 0.0433
x1 = 0.5358 | 0.043
x1 = 0.5481 | 0.043
x1 = 0.5609 | 0.0428
x1 = 0.5743 | 0.0425
x1 = 0.5884 | 0.0423
x1 = 0.6031 | 0.0418
x1 = 0.6161 | 0.0413
x1 = 0.6297 | 0.0409
x1 = 0.644 | 0.0402
x1 = 0.6589 | 0.0397
x1 = 0.6745 | 0.0387
x1 = 0.6908 | 0.0378
x1 = 0.7056 | 0.0366
x1 = 0.721 | 0.0354
x1 = 0.7371 | 0.0342
x1 = 0.7539 | 0.0327
x1 = 0.7715 | 0.0313
x1 = 0.79 | 0.0294
x1 = 0.8057 | 0.028
x1 = 0.8221 | 0.0261
x1 = 0.8391 | 0.0241
x1 = 0.8569 | 0.022
x1 = 0.8754 | 0.0196
x1 = 0.8947 | 0.0167
x1 = 0.9107 | 0.0146
x1 = 0.9273 | 0.0122
x1 = 0.9445 | 0.00956
x1 = 0.9623 | 0.00645
x1 = 0.9808 | 0.00335

CCCCCCCCC(C)=O [2-decanone] + CCCCCCCCCCCC
Conditions | excess molar enthalpy [kcal/mol]
x1 = 0.0258 | 0.0318
x1 = 0.0503 | 0.059
x1 = 0.0736 | 0.0822
x1 = 0.0958 | 0.102
x1 = 0.1169 | 0.119
x1 = 0.1371 | 0.134
x1 = 0.1612 | 0.15
x1 = 0.1841 | 0.164
x1 = 0.2057 | 0.175
x1 = 0.2262 | 0.185
x1 = 0.2456 | 0.193
x1 = 0.2641 | 0.2
x1 = 0.2847 | 0.206
x1 = 0.3042 | 0.211
x1 = 0.3226 | 0.216
x1 = 0.3401 | 0.219
x1 = 0.3567 | 0.222
x1 = 0.3725 | 0.224
x1 = 0.3897 | 0.226
x1 = 0.406 | 0.227
x1 = 0.4215 | 0.228
x1 = 0.4362 | 0.228
x1 = 0.4501 | 0.227
x1 = 0.4634 | 0.227
x1 = 0.4782 | 0.226
x1 = 0.4923 | 0.225
x1 = 0.5055 | 0.224
x1 = 0.5182 | 0.222
x1 = 0.5302 | 0.22
x1 = 0.5416 | 0.218
x1 = 0.5543 | 0.216
x1 = 0.5663 | 0.214
x1 = 0.5777 | 0.211
x1 = 0.5885 | 0.209
x1 = 0.5987 | 0.206
x1 = 0.6049 | 0.204
x1 = 0.6179 | 0.201
x1 = 0.6311 | 0.197
x1 = 0.6448 | 0.193
x1 = 0.6592 | 0.188
x1 = 0.6742 | 0.183
x1 = 0.6899 | 0.178
x1 = 0.704 | 0.173
x1 = 0.7187 | 0.167
x1 = 0.7341 | 0.161
x1 = 0.7501 | 0.154
x1 = 0.7668 | 0.146
x1 = 0.7843 | 0.137
x1 = 0.8 | 0.13
x1 = 0.8163 | 0.121
x1 = 0.8334 | 0.112
x1 = 0.8511 | 0.102
x1 = 0.8696 | 0.0918
x1 = 0.889 | 0.0798
x1 = 0.9057 | 0.0686
x1 = 0.9231 | 0.0571
x1 = 0.9412 | 0.0442
x1 = 0.96 | 0.0308
x1 = 0.9796 | 0.0158

CCCCCOCCCCC [dipentyl ether] + CCCCCCCCCCCCCC
Conditions | excess molar enthalpy [kcal/mol]
x1 = 0.0299 | 0.00693
x1 = 0.0581 | 0.0129
x1 = 0.0847 | 0.0182
x1 = 0.1099 | 0.0227
x1 = 0.1337 | 0.0265
x1 = 0.1562 | 0.0304
x1 = 0.1776 | 0.0335
x1 = 0.198 | 0.0361
x1 = 0.22 | 0.0392
x1 = 0.2447 | 0.0416
x1 = 0.266 | 0.044
x1 = 0.2862 | 0.0459
x1 = 0.3054 | 0.0473
x1 = 0.3235 | 0.0485
x1 = 0.3407 | 0.0497
x1 = 0.357 | 0.0507
x1 = 0.3761 | 0.0519
x1 = 0.394 | 0.0526
x1 = 0.411 | 0.0531
x1 = 0.427 | 0.0535
x1 = 0.4422 | 0.0538
x1 = 0.4566 | 0.054
x1 = 0.4702 | 0.0543
x1 = 0.4832 | 0.0543
x1 = 0.4927 | 0.0543
x1 = 0.5031 | 0.0545
x1 = 0.5139 | 0.0545
x1 = 0.5253 | 0.0547
x1 = 0.5371 | 0.0545
x1 = 0.5494 | 0.0545
x1 = 0.5604 | 0.0543
x1 = 0.5718 | 0.054
x1 = 0.5838 | 0.0535
x1 = 0.5962 | 0.0533
x1 = 0.6092 | 0.0528
x1 = 0.6228 | 0.0521
x1 = 0.6369 | 0.0511
x1 = 0.6502 | 0.0507
x1 = 0.664 | 0.0497
x1 = 0.6784 | 0.0488
x1 = 0.6934 | 0.0476
x1 = 0.7092 | 0.0464
x1 = 0.7256 | 0.0449
x1 = 0.7398 | 0.0435
x1 = 0.7546 | 0.0421
x1 = 0.7699 | 0.0404
x1 = 0.7859 | 0.0382
x1 = 0.8026 | 0.0361
x1 = 0.8199 | 0.0337
x1 = 0.8353 | 0.0313
x1 = 0.8513 | 0.0289
x1 = 0.8679 | 0.0263
x1 = 0.8852 | 0.0234
x1 = 0.9032 | 0.0203
x1 = 0.918 | 0.0177
x1 = 0.9333 | 0.0146
x1 = 0.9491 | 0.0112
x1 = 0.9655 | 0.00765
x1 = 0.9824 | 0.00406
